# Measured values published in patent US10406233B2, “Telodendrimers with enhanced drug delivery” (priority 2011, dated 2019).
# Experiments:
# [1] = test system: Subcutaneous Raji lymphoma xenograft; assay: In vivo anti-tumor efficacy study; design: species or system nude mice; details: 10 mg/kg DOX i.v. days 0, 4, 8
# Procedure: Lymphoma xenograft mouse models were established by subcutaneously injecting 1×10^7 Raji lymphoma cells in a 100 μL of mixture of PBS and Matrigel (1:1 v/v) at the right flank in female nude mice.
# [2] = Toxicity monitoring in the therapeutic study (body weight, blood cell counts, serum chemistry, heart histology); assay type: in vivo, Raji tumor bearing mice
# Procedure: Subcutaneous Raji lymphoma xenograft mouse model was used to evaluate the therapeutic efficacy of different formulations of DOX. When tumor volume reached 150-300 mm^3, mice were intravenously administrated with PBS, DOX.HCl, Doxil®, or DOX-PEG^5k-CA4^αRh4^ε at the dose of 10 mg/kg DOX equivalent (MTD of free DOX) (n=5-8). The treatment was given every four day on days 0, 4 and 8 for total three doses. Tumor sizes were measured with a digital caliper twice per week. Tumor volume was calculated by the formula (L×W^2)/2, where L is the longest, and W is the shortest in tumor diameters (mm). To compare between groups, relative tumor volume (RTV) was calculated at each measurement time point (where RTV equals the tumor volume at given time point divided by the tumor volume prior to initial treatment). For humane reasons, animals were sacrificed when the implanted tumor volume reached 2000 mm^3, which was considered as the end point of survival data. At day 7 after the last dosage, blood samples were obtained from all the mice for the measurement of blood cell counts, hepatic or renal function tests (ALT, AST, and BUN), and serum enzyme markers of cardiotoxicity including creatine kinase (CK) and lactate dehydrogenase (LDH). One mouse from each group was also sacrificed, and its heart was submitted for histopathology evaluation.
# [3] = Maximum tolerated dose (MTD) study; details: mice, intravenous
# [4] = day 7 after last dosage, free DOX vs untreated mice, nanoformulations vs free DOX (P<0.05)
structure (smiles),measurement,setting,value
"COc1cccc2c1C(=O)c1c(O)c3c(c(O)c1C2=O)C[C@@](O)(C(=O)CO)C[C@@H]3O[C@H]1C[C@H](N)[C@H](O)[C@H](C)O1.Cl [free DOX, Doxorubicin hydrochloride]",median survival time,[1],32 days
same,median RTV (relative tumor volume),[1]; by day 28,9.9
same,body weight loss,"[2]; 10 mg/kg DOX i.v. days 0, 4, 8",significantly higher
same,serum level of CK,[2]; [4],significantly increased
same,serum level of LDH,[2]; [4],significantly increased
same,WBC count,"[2]; day 7 after the last injection, compared to PBS control",significantly decreased
same,death,[2]; on day 16,one death
same,MTD,[3],10 mg/kg
